A short description of this data set: QSRR estimation of CHIn+Fbt and CHIbt from LC retention times. In kind it is physicochemical. Conditions: predicted (QSRR, equation 13); parent-drug label = average for that drug.

The structures appear in SMILES notation.

The values below come from paper PMC6350196 (Drug Metabolism Letters, 2018).

Turning to `CC(C)c1c(C(=O)Nc2ccccc2)c(-c2ccccc2)c(-c2ccc(F)cc2)n1CC[C@@H](O)C[C@@H](O)CC(=O)O` [atorvastatin], the “CHIbt, aromatic oxidation (w/o HB)” value is recorded as -16.4 and the “CHIbt, aromatic oxidation with HB” value is listed as -2.9.
